The test system of experiment [1] is SGK-1 dependent activation of ENaC-currents in A6 cell monolayers. The experiment is described as follows: Functional electrophysiological assay, SGK-1 dependent activation of ENaC currents in A6 cell monolayers (Ussing chamber). Format: cell-based. The note with it: Xenopus laevis, 0.75 h, hypoosmotic shock 45 min, read-out: IC50 for inhibition of ΔI'sc (amiloride-sensitive ENaC-dependent short circuit current). How it is done: Materials and methods for Ussing chamber measurement of A6 cells: The renal Xenopus laevis cell line A6 (Rafferty, K. A.; Mass culture of amphibia cells: methods and observations concerning stability of cell type. In: Biology of Amphibian Tumors, edited by M. Mizell. New York: Springer-Verlag, 1969, p. 52-81) was used for the experiments. Cells were grown in cell culture flasks (Nunc) at 28° C. in a humidified atmosphere with 4% CO2. The culture medium contained a 7:3 mixture of Leibovitz's L-15 (Sigma-Aldrich)/Coon's (Sigma-Aldrich) media supplemented with 10% fetal bovine serum (PAA), 20% sterile water, 25 mM NaHCO3 (Sigma-Aldrich), 100 U/ml penicillin (PAA) and 100 μg/ml streptomycin (PAA). The osmolality of the medium was 270 mOsml/kg H2O). […] Filters with confluent A6 cells were transferred into a continuously perfused Ussing-chamber, and electrophysiological parameters were measured under open circuit conditions using a transepithelial clamp amplifier (EP Design). Short circuit current (I′sc) was calculated by Ohm's law. […]
To evaluate the effects of SGK inhibitors on ENaC-mediated transepithelial currents, […] monolayers were first equilibrated for 5 min with isoosmotic Ringer-solution from both the luminal and basolateral side of the cell layer. […] ENaC-dependent I′sc after the hypoosmotic shock (I′schypo) was determined by application of amiloride at the end of the experiment. […]

The subject of experiment [2] is collagen type X (Col10a1) expression in ATDC5 cells. Briefly: Chondrocyte hypertrophic differentiation in mouse chondrogenic ATDC5 cells (collagen type X expression). Format: cell-based. The conditions noted are these: 336 h, 14 days differentiation with BMP2 and T3, Col10a1 by quantitative real-time PCR, read-out: IC50 for the inhibition of collagen type X expression. An excerpt: The ATDC5 cell assay was used as in vitro model to determine the effects of the compounds of the invention on chondrocyte hypertrophic differentiation by monitoring the expression levels of collagen type X (Col10a1) as specific marker of chondrocyte hypertrophy.
Background: ATDC5 cells are a clonal mouse embryonic cell line derived from multipotent AT805 teratocarcinoma cells (Atsumi T, Miwa Y, Kimata K, Ikawa Y.; A chondrogenic cell line derived from a differentiating culture of AT805 teratocarcinoma cells. Cell Differ. Dev. 30 (1990), 109-116). […] Chondrogenic differentiation can be shown by measuring the expression of the cartilage main collagen (Col2a1) and aggrecan (AGC1) and glycosaminoglycan-staining with Alcian Blue within two weeks after insulin-triggered differentiation, and hypertrophic differentiation can be monitored by the expression of collagen type X (Col10a1), a specific marker of chondrocyte hypertrophy within 21 days of in vitro culture. […] SGK-inhibitors were added to differentiating ATDC5 cells for 14 days and Col10a1 gene expression was quantified to determine effects on chondrocyte hypertrophic differentiation. […]
After two weeks of cell culture, RNA was isolated and converted to cDNA for determination of gene expression by quantitative real-time PCR. […] RNA was isolated in 30 μl of pure water and the RNA content measured by UV-spectroscopy (Nanodrop, Peqlab). […]
In general terms: Real-time PCR tracks product formation cycle by cycle.

Experiment [3] addresses recombinant human SGK-1 enzyme (Homo sapiens, UniProt O00141). The experiment is described as follows: SGK-1 enzymatic activity assay (substrate phosphorylation, fluorescein-labeled peptide, lab-chip). The conditions noted are these: ATP 10 μM, peptide substrate 1 μM, 60 min at 37° C., read-out: IC50 for inhibition of SGK-1 enzymatic activity. Format: biochemical. The text has this:
The synthesized fluorescent labeled peptide substrate contained (5(6)-Carboxyfluorescein)-RPRAATF-NH2. The phosphorylated substrate peptide and non-phosphorylated substrate peptide were separated with caliper life science's lab-chip technology based on a micro fluidics method. All fluid flow was established on the chip by applying a vacuum of a few psi to the waste well transporting fluid from various sources through interconnecting channels. Because the phosphoryl group is doubly negatively charged, under the pressure-driven hydrodynamic flow and the voltage-driven flow within the electric field, the fluorescent labeled peptide substrate and its phosphorylation product appear at different times in the detection window to the detection point. Substrate turnover can thus be determined as the ratio of the product peak area and the sum of substrate peak area and product peak area.
The enzyme reaction was carried out in a buffer containing 25 mM Tris-HCl (pH 7.4), 5 mM MgCl2, 2 mM MnCl2, 2 mM DTT, and 0.03% bovine serum albumine. The enzyme was pre-incubated with the test compound for 30 min at 24° C. The kinase reaction was initiated by addition of the substrate mixture containing the peptide substrate (final concentration 1 μM) and ATP (final concentration 10 μM). After 60 min incubation at 37° C., the enzyme reaction was terminated by adding a buffer containing 100 mM Hepes (pH 7.4) and 35 mM EDTA.
For the determination of the compound dose response, a 10 mM DMSO stock solution was diluted and tested in a ten-point, three-fold dilution series run in duplicate beginning at 30 μM final concentration. Data were analyzed using a four-parameter curve fit with a fixed minimum and maximum experimentally defined as the average positive and negative controls on each plate.

Molecules are shown by their SMILES.

Chain of recombinant human SGK-1 enzyme (O00141 whole entry, looked up): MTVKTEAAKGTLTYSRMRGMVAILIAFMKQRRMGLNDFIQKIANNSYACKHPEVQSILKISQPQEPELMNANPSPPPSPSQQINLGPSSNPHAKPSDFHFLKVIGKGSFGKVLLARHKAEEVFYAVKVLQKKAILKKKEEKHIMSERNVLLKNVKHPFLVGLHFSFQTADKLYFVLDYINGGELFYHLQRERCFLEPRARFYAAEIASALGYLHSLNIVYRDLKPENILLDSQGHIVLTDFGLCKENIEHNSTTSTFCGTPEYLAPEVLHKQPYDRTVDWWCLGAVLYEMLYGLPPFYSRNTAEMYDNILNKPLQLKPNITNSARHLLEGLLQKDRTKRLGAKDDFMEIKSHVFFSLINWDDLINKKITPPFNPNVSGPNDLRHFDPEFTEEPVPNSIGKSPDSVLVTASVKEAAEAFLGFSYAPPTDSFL

The term IC50 denotes the point on the concentration scale where inhibition reaches its midpoint. As to `Nc1n[nH]c2nc(-c3ccc(NS(=O)(=O)c4cccc(Cl)c4Cl)cc3)cnc12` [Example 1, N-[4-(3-Amino-1H-pyrazolo[3,4-b]pyrazin-6-yl)phenyl]-2,3-dichloro-benzenesulfonamide], the IC50 in experiment [1] was found to be 2100 nM.
Consider `Nc1n[nH]c2nc(-c3ccc(NS(=O)(=O)c4cc(Cl)ccc4F)c(F)c3)cnc12` [Example 6, N-[4-(3-Amino-1H-pyrazolo[3,4-b]pyrazin-6-yl)-2-fluoro-phenyl]-5-chloro-2-fluoro-benzenesulfonamide], for which the IC50 in experiment [2] came out at 559 nM.
As for `O=S(=O)(Nc1ccc(-c2cnc3c(NS(=O)(=O)c4cc(Cl)c(F)cc4F)n[nH]c3n2)cc1)c1cc(Cl)c(F)cc1F` [Example 42, 5-Chloro-N-[4-[3-[(5-chloro-2,4-difluoro-phenyl)sulfonylamino]-1H-pyrazolo[3,4-b]pyrazin-6-yl]phenyl]-2,4-difluoro-benzenesulfonamide], in experiment [3], the IC50 was determined as 413 nM.
Same read-out and setting: then `Cc1nn(C)c(Cl)c1S(=O)(=O)Nc1ccc(-c2cnc3c(NS(=O)(=O)c4c(C)nn(C)c4Cl)n[nH]c3n2)cc1` [Example 43, 5-Chloro-N-[4-[3-[(5-chloro-1,3-dimethyl-pyrazol-4-yl)sulfonylamino]-1H-pyrazolo[3,4-b]pyrazin-6-yl]phenyl]-1,3-dimethyl-pyrazole-4-sulfonamide], with 1050 nM; and `N#Cc1ccc(F)c(S(=O)(=O)Nc2ccc(-c3cnc4c(N)n[nH]c4n3)cc2)c1` [Example 45, N-[4-(3-Amino-1H-pyrazolo[3,4-b]pyrazin-6-yl)-phenyl]-5-cyano-2-fluoro-benzenesulfonamide], with 47 nM.
Same read-out and setting: the same measure for `Nc1n[nH]c2nc(-c3ccc(NS(=O)(=O)c4cc(F)cc(F)c4Cl)cc3)cnc12` [Example 60, N-[4-(3-Amino-1H-pyrazolo[3,4-b]pyrazin-6-yl)-phenyl]-2-chloro-3,5-difluoro-benzenesulfonamide]: 31 nM; for `Nc1n[nH]c2nc(-c3ccc(NS(=O)(=O)c4ccc(F)cc4Cl)cc3)cnc12` [Example 61, N-[4-(3-Amino-1H-pyrazolo[3,4-b]pyrazin-6-yl)-phenyl]-2-chloro-4-fluoro-benzenesulfonamide]: 18 nM.
